# According to patent US20230190887A1, “TARGETING G3BP AGGREGATION TO PREVENT NEURODEGENERATION” (priority 2019, published 2023):
# Entries after “also recorded” stand apart in the source; their conditions may differ.
# Assays:
# [1] = test system: GFP^MYR/mCh^MYR translation reporters in DRG axons; test: FRAP of axonal translation reporters; format: cell-based, rat; settings: 10 μM peptide 30 min
# Experimental: Fluorescence recovery after photobleaching (FRAP). FRAP was used to test for axonal mRNA protein synthesis using diffusion-limited GFP^MYR and mCherry^MYR reporters as described with minor modifications. In each case, DRG neurons were co-transfected with GFP^MYR 5′/3′nrn1+mCherry^MYR 5′/3′gap43 or GFP^MYR 5′/3′impβ1+mCherry^MYR5′/3′gap43 so that recovery of both reporters could be analyzed simultaneously. Cells were maintained at 37° C., 5% CO2 during imaging sequences. 488 nm and 514 nm laser lines on Leica SP8X confocal microscope were used to bleach GFP and mCherry signals, respectively (Argon laser at 70% power, pulsed every 0.82 s for 80 frames). Pinhole was set to 3 Airy units to ensure full thickness bleaching and acquisition (63×/1.4 NA oil immersion objective). Prior to photobleaching, neurons were imaged every 60 s for 2 min to acquire baseline fluorescence the region of interest (ROI; 15% laser power, 498-530 nm for GFP and 565-597 nm for mCherry emissions, respectively). The same excitation and emission parameters were used to assess recovery over 15 min post-bleach with images acquired at 30 s intervals. To determine if fluorescence recovery in axons was from translation, cultures were treated with 150 μg/ml cycloheximide (Sigma) or 100 μm anisomycin (Sigma) for 30 min prior to photobleaching for GFP^MYR 5′/3′nrn1+mCherry^MYR 5′/3′gap43 and GFP^MYR 5′/3′impβ1+mCh^MYR 5′/3′gap43 transfected DRGs, respectively. […] Photobleaching followed by analyses of recovery was performed after 30 min of peptide exposure.
# For normalizing across experiments, fluorescence intensity value at t=0 min postbleach from each image sequence was set as 0%. The percentage of fluorescence recovery at each time point after photobleaching was then calculated by normalizing relative to the pre-bleach fluorescence intensity (set at 100%).
# [2] = test system: G3BP1 and pTDP-43 particles in C9ORF72 iPS-MN axons; test: G3BP1/pTDP-43 RNP condensates in iPS-MN axons; format: cell-based, human; settings: peptide exclusively in the axonal compartment of the MFC
# Text: Formation of G3BP1-positive RNP condensates is strongly associated with repressed RNA translation, see Sahoo, P. K. et al. A Ca^2+ dependent switch activates axonal casein kinase 2α translation and drives G3BP1 granule disassembly for axon regeneration. Curr. Biol. 30, 4882-4895.e6 (2020), and altered mRNA transport, see Liao, Y. C. et al. RNA granules hitchhike on lysosomes for long-distance transport, using Annexin All as a molecular tether. Cell 179, 147-164.e20 (2019), leading to reduced protein synthesis, see Sahoo, P. K. et al. Axonal G3BP1 stress granule protein limits axonal mRNA translation and nerve regeneration. Nat. Commun. 9, 1-14 (2018). […] By quantifying OPP puncta density within in vitro NMJs, we identified robust protein synthesis within control co-cultures, while protein synthesis in TDPΔNLS NMJs was severely impaired (FIG. 19 3k-l). […] Unpaired-t-test, two-sided ****p<0.0001. c Images and d-f quantification of NFH, pTDP-43 and G3BP1 and their colocalization in C9ORF72 iPS-MN axons either treated or not with G3BP1 peptide. Quantifications of G3BP1 particle density (d), G3BP1-pTDP-43 coloc-particle density (e) and G3BP1-pTDP-43 coloc-particle size (f) from C9ORF72 and control iPS-MN axons, either treated or not with G3BP1 peptide. […] One-way-ANOVA with Holm-Sidak correction. […], ****p<0.0001. i Images and j quantification of OPP puncta density in control or ΔNLS MN axons. […]
substance,measurement,setting,value
YGNKKNNNQNNN-VVEPEPEPEPEPEPEPVSE [G3BP1 190-208 peptide],axonal translation of GFP^MYR 5′/3′nrn1,[1]; G3BP1 overexpression (G3BP1-BFP),reversed the decrease in axonal translation; also recorded: increased
same,axonal translation of GFP^MYR 5′/3′impβ1,[1]; G3BP1 overexpression,did not rescue the decline in axonal translation
same,GFP^MYR 5′/3′impβ1 translation in axons,[1]; control conditions,lack of effect
same,mCh^MYR 5′/3′gap43 translation in axons,[1]; control conditions,lack of effect
same,G3BP1/pTDP43 particle size,[2],Reduce G3BP1/pTDP43 particle size
same,pTDP43 RNP-condensate density,[2],Reduce
